Assay results from US20220388972A1, “CHROMAN-4-ONE DERIVATIVES FOR THE TREATMENT AND PROPHYLAXIS OF HEPATITIS B VIRUS INFECTION” (Hoffmann-La Roche Inc., priority 2018, published 2022).

Assays:
[1] = system: HBV (extracellular HBsAg) in primary human hepatocytes; experiment: Cryopreserved primary human hepatocytes (PHH) HBV infection assay, HBsAg; assay type: cell-based; conditions: Hepatitis B virus, Hepatocyte, 216 h, HBV-infected cryopreserved PHH, 9 days post-compound treatment, CLIA
Experimental: This assay is used to confirm the anti-HBV effect of the compounds in HBV PHH infection assay. Cryopreserved PHH (BioreclamationIVT, Lot YJM) was thawed at 37° C. and gently transferred into pre-warmed InVitroGRO HT medium (BioreclamationIVT, Cat. S03317).
The mixture was centrifuged at 70 relative centrifugal force (RCF) for 3 minutes at RT, and the supernatant was discarded. Pre-warmed InVitroGRO CP medium (BioreclamationIVT, Cat #S03316) was added to the cell pellet to gently re-suspend cells. The cells were seeded at the density of 5.8×10^4 cells per well to collagen I coated 96-well plate (Gibco, Cat. A1142803) with the InVitroGRO CP medium. All plates were incubated at 37° C. with 5% CO2 and 85% humidity.
At 20 hours after plating, the medium was changed to PHH culture medium (Dulbecco's Modified Eagle Medium (DMEM)/F12 (1:1) (Gibco, Cat. 11320-033), 10% fetal bovine serum (Gibco Cat. 10099141), 100 U/mL penicillin, 100 μg/mL streptomycin (Gibco, Cat. 151401-122), 5 ng/mL human epidermal growth factor (Invitrogen Cat. PHG0311L), 20 ng/mL dexamethasone (Sigma, Cat. D4902) and 250 ng/mL human recombinant insulin (Gibco, Cat. 12585-014)). And the cells were incubated at 37° C. with 5% CO2 and 85% humidity for 4 hours. The medium was then changed to pre-warmed PHH culture medium containing 4% polyethylene glycol (PEG) MW8000 (Sigma, Cat. P1458-50 ML) and 1% DMSO (Sigma, Cat. D2650). 5.8×10^6 genomic equivalents of HBV were added into the medium.
At 24 hours' post-infection, the cells were gently washed with PBS and refreshed with PHH culture medium supplemented with 1% DMSO, and 0.25 mg/mL Matrix gel (Corning, Cat. 356237) at 200 μL per well. All plates were immediately placed in at 37° C. CO2 incubator.
24 hours later, serial dilutions of compounds made with DMSO were further diluted with the same culture medium (PHH culture medium supplemented with 1% DMSO and 0.25 mg/mL Matrix gel as described above) before they were added to the cells to reach desired final compound concentrations and 1% DMSO concentration. The medium containing the compounds were refreshed every three days.
At 9 days' post-compound treatment, extracellular HBsAg level were measured with Chemiluminescence Immuno Assay (CLIA) kit (Autobio, HBsAg Quantitative CLIA).
HBsAg IC50 and HBV DNA IC50 values were derived from the dose-response curve using 4 parameters logistic curve fit method. The compounds of formula (I) have HBsAg IC50<20 μM, particularly <1 μM; and HBV DNA IC50<50 μM.

[2] = system: HBV cccDNA (HBeAg as surrogate marker) in HepDES19 cells; experiment: Engineered HepDES19 primary screen assay (HBeAg as surrogate marker for cccDNA); assay type: cell-based; conditions: Hepatitis B virus, HepDES19, 120 h
Source text: The assay was employed to screen for cccDNA inhibitors. HepDES19 is a cccDNA-producing cell line. In this cell line, HBeAg in the cell culture supernatant as surrogate marker, as HBeAg production depends on cccDNA level and activity. HepDES19 is an engineered cell line which contains a 1.1 unit length HBV genome, and pgRNA transcription from the transgene is controlled by Tetracycline (Tet). In the absence of Tet, pgRNA transcription will be induced, but HBV e antigen (HBeAg) could not be produced from this pgRNA due to very short leader sequence before the HBeAg start codon and the start codon is disrupted. Only after cccDNA is formed, the missing leader sequence and start codon mutation would be restored from the 3′-terminal redundancy of pgRNA, and then HBeAg could be synthesized. Therefore, HBeAg could be used as a surrogate marker for cccDNA (Zhou, T. et al., Antiviral Res. (2006), 72 (2), 116-124; Guo, H. et al., J. Virol. (2007), 81 (22), 12472-12484).
HepDES19 cells were seeded at 2×10^6 cells per T150 flask and cultured with the culture medium (Dulbecco's Modified Eagle Medium: Nutrient Mixture F-12 [DMEM-F12, Gibco Cat. 11320-82], 10% Fetal Bovine Serum [FBS, Clontech Cat. 631101], 0.1 mM Non-Essential Amino Acids Solution [NEAA, Gibco Cat. 11140-050], 50 μg/mL Penicillin-Streptomycin [PS, Invitrogen Cat. 15140-163], 500 μg/mL Geneticin [G418, Invitrogen Cat. 10131-027]) containing 3 μg/mL Tet (Sigma, Cat. 87128) for 5 days. Cells were then seeded at 4×10^6 cells per T150 in the same culture medium as described above in the absence of Tet for 8 days. Cells were then harvested and frozen at density of 2×10^6 cells per mL. For compound testing, the frozen cells were thawed and seeded into 96-well plates at a density of 6×10^4 cells per well. At 24 hours after seeding, half log serial dilutions of compounds made with Dimethyl sulfoxide (DMSO, Sigma, Cat. D2650) were further diluted with the same culture medium as described above before they were added to the cells to reach desired final compound concentrations and 1% DMSO concentration. Plates were then incubated at 37° C. for another 5 days before measurement of HBeAg level and cell viability. Intracellular HBeAg level were measured with enzyme-linked immunosorbent assay (ELISA) kit (Shanghai Kehua Diagnostic Medical Products Co., Ltd). Cell viability was assessed using Cell Counting Kit-8 (DonJindo, Cat. CK04-20). IC50 values were derived from the dose-response curve using 4 parameters logistic curve fit method.
The compounds of the present invention were tested for their capacity to inhibit extracellular HBeAg level as described herein.

Structure (SMILES) | IC50 [1] | IC50 [2]
O=C(O)CCOc1cc(C(F)(F)F)ccc1C1CC(=O)c2cccc(Cl)c2O1 (stereo not drawn) [Example 1, 3-[2-(8-chloro-4-oxo-chroman-2-yl)-5-(trifluoromethyl)phenoxy]propanoic Acid] | 5.31 µM | 730 nM
O=C(O)CCOc1cc(C(F)(F)F)ccc1C1CC(=O)c2ccc(F)c(Cl)c2O1 (stereo not drawn) [Example 2, 3-[2-(8-chloro-7-fluoro-4-oxo-chroman-2-yl)-5-(trifluoromethyl)phenoxy]propanoic Acid] | 4.41 µM | 1970 nM
O=C(O)CCOc1cc(C(F)(F)F)ccc1C1CC(=O)c2cc(F)cc(Cl)c2O1 (stereo not drawn) [Example 3, 3-[2-(8-chloro-6-fluoro-4-oxo-chroman-2-yl)-5-(trifluoromethyl)phenoxy]propanoic Acid] | 11.2 µM | 5590 nM
COc1cc(C2CC(=O)c3cccc(Cl)c3O2)c(OCCC(=O)O)cc1C(F)(F)F (stereo not drawn) [Example 11, 3-[2-(8-chloro-4-oxo-chroman-2-yl)-4-methoxy-5-(trifluoromethyl)phenoxy]propanoic Acid] | 8.34 µM | 5140 nM
O=C(O)CCOc1cc(OC(F)(F)F)ccc1C1CC(=O)c2cccc(Cl)c2O1 (stereo not drawn) [Example 13, 3-[2-(8-chloro-4-oxo-chroman-2-yl)-5-(trifluoromethoxy)phenoxy]propanoic Acid] | 6.86 µM | 390 nM
O=C(O)COCCOc1cc(C(F)(F)F)ccc1C1CC(=O)c2cccc(Cl)c2O1 (stereo not drawn) [Example 21, 2-[2-[2-(8-chloro-4-oxo-chroman-2-yl)-5-(trifluoromethyl)phenoxy]ethoxy]acetic Acid] |  | 4890 nM
Cc1ccc(C2CC(=O)c3cccc(Cl)c3O2)c(OCCCOCC(=O)O)c1 (stereo not drawn) [Example 22, 2-[3-[2-(8-chloro-4-oxo-chroman-2-yl)-5-methyl-phenoxy]propoxy]acetic Acid] |  | 1990 nM
O=C(O)COCCCOc1cc(C(F)(F)F)ccc1C1CC(=O)c2cccc(Cl)c2O1 (stereo not drawn) [Example 23, 2-[3-[2-(8-chloro-4-oxo-chroman-2-yl)-5-(trifluoromethyl)phenoxy]propoxy]acetic Acid] |  | 1560 nM
O=C(O)COCCCOc1cc(C(F)(F)F)ccc1C1CC(=O)c2ccc(F)c(Cl)c2O1 (stereo not drawn) [Example 24, 2-[3-[2-(8-chloro-7-fluoro-4-oxo-chroman-2-yl)-5-(trifluoromethyl)phenoxy]propoxy]acetic Acid] |  | 7140 nM
O=C(O)CCCOc1cc(C(F)(F)F)ccc1C1CC(=O)c2ccc(F)c(Cl)c2O1 (stereo not drawn) [Example 25, 4-[2-(8-chloro-7-fluoro-4-oxo-chroman-2-yl)-5-(trifluoromethyl)phenoxy]butanoic Acid] |  | 1180 nM
O=C(O)COc1cc(C(F)(F)F)ccc1C1CC(=O)c2ccc(F)c(Cl)c2O1 (stereo not drawn) [Example 26, 2-[2-(8-chloro-7-fluoro-4-oxo-chroman-2-yl)-5-(trifluoromethyl)phenoxy]acetic Acid] |  | 2780 nM
CCS(=O)(=O)N[C@H](COc1cc(C(F)(F)F)ccc1C1CC(=O)c2cccc(Cl)c2O1)C(=O)OC (stereo partly drawn) [Example 27, Methyl (2R)-3-[2-(8-chloro-4-oxo-chroman-2-yl)-5-(trifluoromethyl)phenoxy]-2-(ethylsulfonylamino)propanoate] |  | 580 nM
CCS(=O)(=O)N[C@@H](COc1cc(C(F)(F)F)ccc1C1CC(=O)c2cccc(Cl)c2O1)C(=O)O (stereo partly drawn) [Example 29, (2S)-3-[2-(8-chloro-4-oxo-chroman-2-yl)-5-(trifluoromethyl)phenoxy]-2-(ethylsulfonylamino)propanoic Acid] |  | 1910 nM
NS(=O)(=O)N[C@H](COc1cc(C(F)(F)F)ccc1[C@@H]1CC(=O)c2cccc(Cl)c2O1)C(=O)O [Example 30-A, (2R)-3-[2-[(2S)-8-chloro-4-oxo-chroman-2-yl]-5-(trifluoromethyl)phenoxy]-2-(sulfamoylamino)propanoic Acid] |  | 3370 nM
NS(=O)(=O)N[C@H](COc1cc(C(F)(F)F)ccc1[C@H]1CC(=O)c2cccc(Cl)c2O1)C(=O)O [Example 30-B, (2R)-3-[2-[(2R)-8-chloro-4-oxo-chroman-2-yl]-5-(trifluoromethyl)phenoxy]-2-(sulfamoylamino)propanoic Acid] |  | 10700 nM
CCNS(=O)(=O)N[C@H](COc1cc(C(F)(F)F)ccc1[C@@H]1CC(=O)c2cccc(Cl)c2O1)C(=O)O [Example 31-A, (2R)-3-[2-[(2S)-8-chloro-4-oxo-chroman-2-yl]-5-(trifluoromethyl)phenoxy]-2-(ethylsulfamoylamino)propanoic acid] |  | 3300 nM
CCNS(=O)(=O)N[C@H](COc1cc(C(F)(F)F)ccc1[C@H]1CC(=O)c2cccc(Cl)c2O1)C(=O)O [Example 31-B, (2R)-3-[2-[(2R)-8-chloro-4-oxo-chroman-2-yl]-5-(trifluoromethyl)phenoxy]-2-(ethylsulfamoylamino)propanoic Acid] |  | 10900 nM
COCCCOc1cc(C(F)(F)F)ccc1C1CC(=O)c2ccc(F)c(Cl)c2O1 (stereo not drawn) [Example 32, 8-chloro-7-fluoro-2-[2-(3-methoxypropoxy)-4-(trifluoromethyl)phenyl]chroman-4-one] |  | 1930 nM
O=C1CC(c2ccc(C(F)(F)F)cc2OCCCO)Oc2c1ccc(F)c2Cl (stereo not drawn) [Example 33, 8-chloro-7-fluoro-2-[2-(3-hydroxypropoxy)-4-(trifluoromethyl)phenyl]chroman-4-one] |  | 680 nM
O=C1CC(c2ccc(C(F)(F)F)cc2OCCO)Oc2c1ccc(F)c2Cl (stereo not drawn) [Example 34, 8-chloro-7-fluoro-2-[2-(2-hydroxyethoxy)-4-(trifluoromethyl)phenyl]chroman-4-one] |  | 3360 nM
O=C(O)C(=O)NCCOc1cc(Cl)ccc1C1CC(=O)c2cccc(Cl)c2O1 (stereo not drawn) [Example 36, 2-[2-[5-chloro-2-(8-chloro-4-oxo-chroman-2-yl)phenoxy]ethylamino]-2-oxo-acetic Acid] |  | 12900 nM
O=C1CC(c2ccc(Br)cc2O[C@H]2C[C@@H](C(=O)O)C2)Oc2c(Cl)cccc21 (stereo partly drawn) [Example 37, cis-3-[5-bromo-2-(8-chloro-4-oxo-chroman-2-yl)phenoxy]cyclobutanecarboxylic Acid] |  | 670 nM
